Laboratory results reported in US11236367B2, “Fatty acid decarboxylase and its uses” (COMMISSARIAT A L'ENERGIE ATOMIQUE ET AUX ENERGIES …, priority 2016, dated 2022).

How the values were obtained:
Type in all cases: biochemical, Chlorella variabilis NC64A
[1] = biological target: T1, Chlorella GMC oxidoreductase (Chlorella variabilis, UniProt A0A248QE08); test: 13CO2 release from 1-13C-palmitate with the purified enzyme (membrane inlet mass spectrometry); settings: palmitic acid labelled with 13C on the carboxylic group
T1 construct: 6 His-tagged thioredoxin (N, cleaved yes); TEV protease-cleavage site (N, cleaved yes); made in house; host or cells: E. coli BL21-CodonPlus (DE3)-RIL
Experimental: All assays were performed in transparent glass vials sealed using caps with septum. Optimum pH was determined using a Teorell Stenhagen universal buffer (33 mM citric acid monohydrate, 33 mM phosphoric acid, 100 mM NaOH, 16.7 mM of boric acid, pH 8.5 adjusted with 1N HCl). Other assays were performed in 100 mM Tris HCl pH 8.5, 100 mM NaCl. Reaction mixtures (500 μL) typically contained 160 nM purified enzyme (stock ? solution 2.5 mg ml^−1) and 400 μM substrate (stock solution 10 mM in ethanol). In some assays, a lipase was used with the alkane synthase. In this case, substrate was a triacylglycerol. Generally, samples were shaken at 200 rpm during 15 min under LED-made white light at 2000 μmol ? photons m^−2s^−1. After the incubations, samples were heated at 95° C. during 15 min to stop the enzymatic reaction. Samples were cooled down and internal standard (hexadecane) was added (45 nmol from a 4.5 mM stock solution in chloroform). NaOH was then added to the reaction mixture (10 μL from a stock solution of 10 M) and samples were vortexed for 5 min. […] The hexane phase was collected by centrifugation and analyzed by GC-MS-FID. […] In FIG. 11 activity on 1-^13C-palmitate was monitored by release of ^13CO2 using membrane inlet mass spectrometry. […]
Online measurements of ^12CO2 (m/z=44) and ^13CO2 (m/z=45) were monitored using mass spectrometry (model Prima B, Thermo Scientific). […]

[2] = biological target: T1, Chlorella GMC oxidoreductase; test: Enzymatic assay with purified recombinant enzyme (GC-MS of products); settings: for conversion of substrate by the enzyme (product formed): purified recombinant enzyme, white light
Experimental: All assays were performed in transparent glass vials sealed using caps with septum. Optimum pH was determined using a Teorell Stenhagen universal buffer (33 mM citric acid monohydrate, 33 mM phosphoric acid, 100 mM NaOH, 16.7 mM of boric acid, pH 8.5 adjusted with 1N HCl). Other assays were performed in 100 mM Tris HCl pH 8.5, 100 mM NaCl. Reaction mixtures (500 μL) typically contained 160 nM purified enzyme (stock ? solution 2.5 mg ml^−1) and 400 μM substrate (stock solution 10 mM in ethanol). In some assays, a lipase was used with the alkane synthase. In this case, substrate was a triacylglycerol. Generally, samples were shaken at 200 rpm during 15 min under LED-made white light at 2000 μmol ? photons m^−2s^−1. After the incubations, samples were heated at 95° C. during 15 min to stop the enzymatic reaction. Samples were cooled down and internal standard (hexadecane) was added (45 nmol from a 4.5 mM stock solution in chloroform). NaOH was then added to the reaction mixture (10 μL from a stock solution of 10 M) and samples were vortexed for 5 min. Then 250 μL of hexane was added and samples were vortexed for 5 min to extract alkanes and alkenes. The hexane phase was collected by centrifugation and analyzed by GC-MS-FID. The analysis was done by direct injection of 100 μl of the headspace into a GC-MS. In FIG. 11 activity on 1-^13C-palmitate was monitored by release of ^13CO2 using membrane inlet mass spectrometry. Illuminations were provided by CBT-120 LEDs (Luminous, Billerica) either blue (peak at 460 nm, 25 nm FWHM), or red (peak at 635 nm, 15 nm FWHM) at an intensity of 850 μmol photons m^−2 s^−1.

[3] = biological target: T2, alkane synthase activity of Chlorella homogenate (Chlorella variabilis, UniProt A0A248QE08); test: Alkane synthase activity assay on Chlorella homogenate and purification fractions (SPME, GC-MS); settings: for effect of added co-factor on alkane synthase activity: added in different combinations to the solubilized microsomal fraction
T2 construct: Reaction mixtures contained 500 μL of each purification fraction; endogenous in cells; host or cells: Chlorella cells (homogenate, solubilized microsomal fraction, chromatography fractions)
Experimental: Enzymatic assays were performed in transparent glass vials sealed using caps with septum. Reaction mixtures contained 500 μL of each purification fraction, 200 μM of perdeuterated palmitic acid (10 mM stock solution in ethanol) and 45 nmol hexadecane as internal standard (4.5 mM stock solution in chloroform). Vials were agitated at 120 rpm overnight at 25° C. under a white light (intensity 120 μmol photons m^−2s^−1). Reaction was stopped by the addition of 10 μL NaOH 10 M through the septum using a syringe. Hydrocarbons produced were analyzed by incubating in the headspace of the vial a solid phase microextraction (SPME) fiber (DVB PDMS fused silica, 65 μm double-polar, Supelco) mounted on a holder. After 15 min incubation at room temperature the SPME fiber was immediately inserted into the injector of the GC-MS and desorbed at 250° C. GC-MS analysis was carried out as described below.

T2 sequence (A0A248QE08 61-654 limits assumed): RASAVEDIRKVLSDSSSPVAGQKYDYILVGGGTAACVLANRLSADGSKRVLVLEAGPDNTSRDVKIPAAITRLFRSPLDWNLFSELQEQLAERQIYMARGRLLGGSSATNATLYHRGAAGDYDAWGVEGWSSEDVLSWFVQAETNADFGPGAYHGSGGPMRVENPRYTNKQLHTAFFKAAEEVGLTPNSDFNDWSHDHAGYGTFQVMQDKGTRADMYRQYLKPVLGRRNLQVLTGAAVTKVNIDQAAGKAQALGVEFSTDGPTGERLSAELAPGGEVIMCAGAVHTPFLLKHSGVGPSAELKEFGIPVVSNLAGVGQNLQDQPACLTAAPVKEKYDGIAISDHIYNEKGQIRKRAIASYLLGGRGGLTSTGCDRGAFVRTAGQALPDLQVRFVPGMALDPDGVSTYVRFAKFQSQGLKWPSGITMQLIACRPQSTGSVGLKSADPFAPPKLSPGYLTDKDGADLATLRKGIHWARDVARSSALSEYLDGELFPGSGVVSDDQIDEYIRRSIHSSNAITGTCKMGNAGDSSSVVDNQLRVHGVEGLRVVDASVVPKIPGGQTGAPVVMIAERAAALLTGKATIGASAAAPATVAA
T1 sequence (A0A248QE08 62-654): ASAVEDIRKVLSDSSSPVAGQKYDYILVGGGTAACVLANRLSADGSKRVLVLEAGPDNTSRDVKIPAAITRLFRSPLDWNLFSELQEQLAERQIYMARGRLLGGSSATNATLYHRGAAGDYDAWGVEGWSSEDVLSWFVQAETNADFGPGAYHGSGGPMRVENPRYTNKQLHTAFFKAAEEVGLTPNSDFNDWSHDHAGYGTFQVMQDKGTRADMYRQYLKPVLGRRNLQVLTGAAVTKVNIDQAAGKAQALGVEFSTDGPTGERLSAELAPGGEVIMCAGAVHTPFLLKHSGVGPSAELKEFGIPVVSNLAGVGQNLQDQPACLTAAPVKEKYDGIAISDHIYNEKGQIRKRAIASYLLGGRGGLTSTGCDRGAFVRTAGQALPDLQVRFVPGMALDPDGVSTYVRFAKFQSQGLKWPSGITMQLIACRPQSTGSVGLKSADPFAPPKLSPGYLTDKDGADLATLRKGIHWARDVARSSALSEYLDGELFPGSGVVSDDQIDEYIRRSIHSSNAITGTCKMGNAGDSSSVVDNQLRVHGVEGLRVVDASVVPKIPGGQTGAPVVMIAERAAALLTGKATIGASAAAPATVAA

SMILES | conversion of substrate by the enzyme (product formed) [2] | effect of added co-factor on alkane synthase activity [3] | also measured
CCCCCCCCCCCCCCC[13C](=O)O [1-^13C-palmitate, reference compound] |  |  | co-product released from labelled substrate [1]: production of ^13CO2
O=C(O)CCCCCCCCCCCCCCCO [16-OH palmitic acid] | production of pentadecanol |  | 
Nc1ncnc2c1ncn2[C@@H]1O[C@H](COP(=O)(O)OP(=O)(O)OP(=O)(O)O)[C@@H](O)[C@H]1O [ATP] |  | None of them were found to increase the activity | 
[2H]C([2H])([2H])C([2H])([2H])C([2H])([2H])C([2H])([2H])C([2H])([2H])C([2H])([2H])C([2H])([2H])C([2H])([2H])C([2H])([2H])C([2H])([2H])C([2H])([2H])C([2H])([2H])C([2H])([2H])C([2H])([2H])C([2H])([2H])C(=O)O [Deuterated palmitic acid, perdeuterated (D31) palmitic acid] |  |  | formation of labelled pentadecane from labelled substrate ([3]; Chlorella cell homogenate, overnight incubation in sealed vial): labelled pentadecane could be detected
NC(=O)C1=CN([C@@H]2O[C@H](COP(=O)(O)OP(=O)(O)OC[C@H]3O[C@@H](n4cnc5c(N)ncnc54)[C@H](OP(=O)(O)O)[C@@H]3O)[C@@H](O)[C@H]2O)C=CC1 [NADPH] |  | None of them were found to increase the activity | 
NC(=O)c1ccc[n+]([C@@H]2O[C@H](COP(=O)([O-])OP(=O)(O)OC[C@H]3O[C@@H](n4cnc5c(N)ncnc54)[C@H](OP(=O)(O)O)[C@@H]3O)[C@@H](O)[C@H]2O)c1 [NADP] |  | None of them were found to increase the activity | 
CC(C)CCCC(C)CCCC(C)CCCC(C)CC(=O)O (stereo not drawn) [Phytanic acid, 3,7,11,15-tetramethylhexadecanoic acid] | converted into branched alkanes |  | 
CCCCCCCCCCCCCCCCC(=O)OCC(COC(=O)CCCCCCCCCCCCCCCC)OC(=O)CCCCCCCCCCCCCCCC [TAGs, glyceryl triheptadecanoate] | cannot use TAGs (triacylglycerol) directly as substrate |  | conversion of substrate by the enzyme in presence of a TAG lipase ([2]; purified enzyme plus TAG lipase): production of hydrocarbons is observed
